Literature values as cited in US12208061B2 (EXORAO LIFE SCIENCE S.R.L., priority 2019, dated 2025).
Like-named read-outs stand apart in the source and are kept apart here.

Columns and labels:
[1] = system: gram-negative aerobic pathogens including Pseudomonas aeruginosa; details: in vitro
[2] = solution for intravenous infusion
[3] = system: gram-positive bacteria or anaerobes; details: against gram-positive bacteria or anaerobes

time within which reconstituted solution should be used ([2]; controlled room temperature): ≤ 48 h | time within which reconstituted solution should be used ([2]; refrigerated at 2° C. to 8° C.): within seven days
SMILES: C[C@H]1[C@H](NC(=O)/C(=N\OC(C)(C)C(=O)O)c2csc(N)n2)C(=O)N1S(=O)(=O)O [Aztreonam, (Z)-2-[[[(2-amino-4-thiazolyl)[[(2S,3S)-2-methyl-4-oxo-1-sulfo-3-azetidinyl]carbamoyl]methylene]amino]oxy]-2-methylpropionic acid]
pH range over which antimicrobial activity is maintained [1]: 6 to 8 | antimicrobial activity [3]: no useful activity
